In ChEMBL document CHEMBL1152541, “Staurosporine tethered peptide ligands that target cAMP-dependent protein kinase (PKA): optimization and selectivity profiling” (Bioorg Med Chem, 2009):
*1 amine or outer side, *2 acyl side, *3 side chain or, on linkers, in order; H or OH if unused. Where a SMILES comes first, the peptide text is derived from it. Bridges are numbered along the chain shown (N, C = ends). The star is where a group is joined. Staurosporine = CO[C@@H]1[C@H](N(C)*)C[C@H]2O[C@]1(C)n1c3ccccc3c3c4c(c5c6ccccc6n2c5c31)C(=O)NC4; Suc = O=C(CCC(=O)[*:2])[*:1]; βAla = NCCC(=O)O

Legend:
[1] = Ratio of compound IC50 to bivalent ligand 1 IC50 for PKA
[2] = Noncompetitive inhibition of PKA assessed as [gamma-32P]ATP labeling of kemptide by liquid scintillation counting
[3] = Competitive inhibition of PKA assessed as [gamma-32P]ATP labeling of kemptide by liquid scintillation counting
[4] = Mixed inhibition of PKA assessed as [gamma-32P]ATP labeling of kemptide by liquid scintillation counting
[5] = Uncompetitive inhibition of PKA assessed as [gamma-32P]ATP labeling of kemptide by liquid scintillation counting
[6] = Ratio of inhibition of PKA in presence of DTT to inhibition of PKA in absence of DTT

Structure (SMILES) | Ki [2] [µM] | Km [2] [µM] | Ratio [6] | further results
CC(C)[C@@H]1NC(=O)[C@H](CCCNC(=N)N)NC(=O)[C@H](Cc2ccccc2)NC(=O)[C@H](C(C)C)NC(=O)[C@@H](N)CSSC[C@@H](C(=O)NCC(N)=O)NC(=O)CNC(=O)[C@H](Cc2ccccc2)NC1=O (HELM PEPTIDE1{C.V.F.R.V.F.G.C.G.[am]}$PEPTIDE1,PEPTIDE1,1:R3-8:R3$$$V2.0) | 85.6 | 13.3 |  | Ratio IC50 [1]: > 21000
CO[C@@H]1[C@H](N(C)C(=O)CCC(=O)NCCCOCCCNC(=O)COCC(=O)N[C@H]2CSSC[C@@H](C(=O)NCC(N)=O)NC(=O)CNC(=O)[C@H](Cc3ccccc3)NC(=O)[C@H](C(C)C)NC(=O)[C@H](CCCNC(=N)N)NC(=O)[C@H](Cc3ccccc3)NC(=O)[C@H](C(C)C)NC2=O)C[C@H]2O[C@]1(C)n1c3ccccc3c3c4c(c5c6ccccc6n2c5c31)C(=O)NC4 (HELM PEPTIDE1{[CO[C@@H]1[C@H](N(C)C(=O)CCC(=O)NCCCOCCCNC(=O)COCC(=O)[*:2])C[C@H]2O[C@]1(C)n1c3ccccc3c3c4c(c5c6ccccc6n2c5c31)C(=O)NC4].C.V.F.R.V.F.G.C.G.[am]}$PEPTIDE1,PEPTIDE1,2:R3-9:R3$$$V2.0) | 0.002 | 12 |  | Ki [3]: 10.1 µM; Km [4]: 11.2 µM; Km [5]: 13.9 µM
CO[C@@H]1[C@H](N(C)C(=O)CCC(=O)NCCC(=O)NCCC(=O)NCCC(=O)NCCC(=O)NCCC(=O)NCCC(=O)NCCC(=O)NCCC(=O)NCCC(=O)N[C@H]2CSSC[C@@H](C(=O)NCC(N)=O)NC(=O)CNC(=O)[C@H](Cc3ccccc3)NC(=O)[C@H](C(C)C)NC(=O)[C@H](CCCNC(=N)N)NC(=O)[C@H](Cc3ccccc3)NC(=O)[C@H](C(C)C)NC2=O)C[C@H]2O[C@]1(C)n1c3ccccc3c3c4c(c5c6ccccc6n2c5c31)C(=O)NC4 ({Staurosporine-Suc-βAla-βAla-βAla-βAla-βAla-βAla-βAla-βAla-βAla}-CVFRVFGCG-NH2; disulfide 1-8) |  |  | 2.7 | 
CO[C@@H]1[C@H](N(C)C(=O)CCC(=O)NCCC(=O)NCCC(=O)NCCC(=O)NCCC(=O)NCCC(=O)N[C@H]2CSSC[C@@H](C(=O)NCC(N)=O)NC(=O)CNC(=O)[C@H](Cc3ccccc3)NC(=O)[C@H](C(C)C)NC(=O)[C@H](CCCNC(=N)N)NC(=O)[C@H](Cc3ccccc3)NC(=O)[C@H](C(C)C)NC2=O)C[C@H]2O[C@]1(C)n1c3ccccc3c3c4c(c5c6ccccc6n2c5c31)C(=O)NC4 ({Staurosporine-Suc-βAla-βAla-βAla-βAla-βAla}-CVFRVFGCG-NH2; disulfide 1-8) |  |  | 2.7 | 
CO[C@@H]1[C@H](N(C)C(=O)CCC(=O)NCCC(=O)NCCC(=O)NCCC(=O)N[C@H]2CSSC[C@@H](C(=O)NCC(N)=O)NC(=O)CNC(=O)[C@H](Cc3ccccc3)NC(=O)[C@H](C(C)C)NC(=O)[C@H](CCCNC(=N)N)NC(=O)[C@H](Cc3ccccc3)NC(=O)[C@H](C(C)C)NC2=O)C[C@H]2O[C@]1(C)n1c3ccccc3c3c4c(c5c6ccccc6n2c5c31)C(=O)NC4 ({Staurosporine-Suc-βAla-βAla-βAla}-CVFRVFGCG-NH2; disulfide 1-8) |  |  | 2.7 | 
CC(C)C[C@H](NC(=O)[C@H](CO)NC(=O)[C@H](C)NC(=O)[C@H](CCCNC(=N)N)NC(=O)[C@H](CCCNC(=N)N)NC(=O)[C@@H](N)CC(C)C)C(=O)NCC(=O)O [KEMPTIDE] | 86 | 13.3 |  | 
